Laboratory results taken from patent US6461859B1, “Enzymatic oxidation process for desulfurization of fossil fuels” (Instituto Mexicano del Petroleo, priority 1999, dated 2002).

Columns and labels:
[1] = target: T1, poly(ethylene)glycol-modified cytochrome c (PEG-Cyt) (Equus caballus, UniProt P00004); experiment: Oxidation of low-sulfur diesel oil enriched with dibenzothiophene (gas chromatogram); type: biochemical; settings: desulfurized diesel oil enriched with 10 g/l DBT, PEG-Cyt and hydrogen peroxide, GC FID/FPD
T1 construct: made in house
Excerpt: Desulfurized diesel oil (<0.05% of sulfur) is enriched with 10 g/l of DBT and treat with poly(ethylene)glycol-modified cytochrome c (PEG-Cyt) and hydrogen peroxide. […] DBT sulfoxide is an unstable compound which may be oxidized to form DBT sulfone. Cytochrome c is a biocatalyst able to oxidize thiophenes and organosulfides [Vazquez-Duhalt et al Enzyme Microb. Technol. 15 (1993) 494] and has several advantages when compared with other hemoenzymes. […] Technol. 15 (1993) 494; Vazquez-Duhalt et al Enzyme Microb. Technol. 15 (1993) 936.]. In addition, this biocatalyst can be modified by site-directed mutagenesis [E. Torres et al. Enzyme Microb. Technol. 17 (1995) 1014.] and by chemical modification [Tinoco and Vazquez-Duhalt. Enzyme Microb. Technol. 22 (1998) 8.] to improve both its catalytic activity and range of substrates. PEG-modified enzymes are soluble in organic solvents and their activity in organic solvents is increased because of the reduction of mass transfer limitations in the system [Vazquez-Duhalt et al. Enzyme Microb. Technol. 14 (1992) 837].

[2] = Biocatalytic oxidation of primary diesel fuel followed by distillation; settings: chloroperoxidase treatment of primary diesel oil followed by distillation
Description: After biocatalytic oxidation of the fossil fuel a second process of separation of oxidized organosulfur compounds is envisaged. Because the boiling points of sulfur compounds are incersed after biocatlytic oxidation to sulfoxides, it is possible to remove them by a single distillation. Oxidized sulfur compounds can be removed by decreasing the final distillation point. When primary diesel fuel containing 1.6% sulfur is distilled in order to obtain a 100% distillation at a temperature 50° C. lower than the original fraction, it produces a diesel fuel containing 1.27% of sulfur and 83% of the original hydrocarbons. […] Thus, a biocatalytic treatment of primary diesel oil with chloroperoxidase from Caldariomyces fumago, followed by a distillation is able to reduce the sulfur content by 80%.

T1 sequence (P00004 2-105 limits assumed): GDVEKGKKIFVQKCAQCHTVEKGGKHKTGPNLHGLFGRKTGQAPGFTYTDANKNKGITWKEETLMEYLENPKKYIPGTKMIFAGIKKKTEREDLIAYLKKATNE

| Molecule | biocatalytic transformation of DBT [1] | reduction of sulfur content [2] |
| --- | --- | --- |
| c1ccc2c(c1)sc1ccccc12 [Dibenzothiophene] | transformed to DBT sulfoxide | – |
| chloroperoxidase: chloroperoxidase (EC 1.11.1.10) from Caldariomyces fumago, hemoprotein biocatalyst (protein, UniProt P04963 21-319, looked up) Chloroperoxidase: QEPGSGIGYPYDNNTLPYVAPGPTDSRAPCPALNALANHGYIPHDGRAISRETLQNAFLNHMGIANSVIELALTNAFVVCEYVTGSDCGDSLVNLTLLAEPHAFEHDHSFSRKDYKQGVANSNDFIDNRNFDAETFQTSLDVVAGKTHFDYADMNEIRLQRESLSNELDFPGWFTESKPIQNVESGFIFALVSDFNLPDNDENPLVRIDWWKYWFTNESFPYHLGWHPPSPAREIEFVTSASSAVLAASVTSTPSSLPSGAIGPGAEAVPLSFASTMTPFLLATNAPYYAQDPTLGPND | – | 80% |
